Measurements: patent US11311624B2, “Inhibitors of MEK/PI3K, JAK/MEK, JAK/PI3K/mTOR and MEK/PI3K/mTOR biological pathways and methods for improving lymphatic uptake, bioavailability, and solubility of therapeutic compounds” (THE REGENTS OF THE UNIVERSITY OF MICHIGAN, priority 2017, dated 2022)
Read-outs that look alike come from different tables or passages of the source.

How the values were obtained:
PI3Kδ = PI3Kδ (Homo sapiens, UniProt O00329); assay: In vitro inhibition of PI3Kδ; format: biochemical
PI3Kγ = PI3Kγ (Homo sapiens, UniProt P48736); assay: In vitro inhibition of PI3Kγ; format: biochemical
PI3Kα = PI3Kα (Homo sapiens, UniProt P42336); assay: In vitro inhibition of PI3Kα; format: biochemical
PI3Kβ = PI3Kβ (Homo sapiens, UniProt P42338); assay: In vitro inhibition of PI3Kβ; format: biochemical
MEK1 = MEK1 (Homo sapiens, UniProt Q02750); assay: In vitro inhibition of MEK1; format: biochemical
pERK1/2 and pAKT = assay: Immunoblot of treated A375 melanoma cells (FIG. 5A); format: cell-based, human; details: 1 h, 20 μM
Experimental: (§1) ADME (absorption, distribution, metabolism, and excretion) studies of ST-168 have shown that ST-168 is bioavailable following administration in mice.
In FIG. 5A, a two-dimensional assessment of ST-162 and ST-168. […] In FIG. 5B, assessment of dead cells in 3D melanoma spheroids post-treatment with ST-162 and ST-168. A375 melanoma spheroids were treated for 72 h with 20 μM each of ST-162 or ST-168 before staining with Calcein AM and ethidium homodimer-1 for fluorescent microscopy (live/dead viability assay, Molecular Probes). Green fluorescence indicates live cells, and red fluorescence indicates dead cells. Images were obtained with an Olympus IX70 fluorescent microscope using the SPOT advance program. In FIG. 5C tumor growth inhibition by ST-162 and ST-168 in a melanoma xenograft model. Tumor implantation consisted of inoculation of 5×10^6 A375 cells suspended in 100 μL of media into the flank of nude mice. Treatment was initiated once tumors reached >100 mm^3. […] Changes in tumor growth of A375 xenografts were assessed by conducting MRI imaging twice per week. Tumor volume changes between ST-162 and ST-168 treatment were determined to be statistically significant (p<0.05) using an unpaired Student's t test at the last time point. […]

A375 xenografts = assay: Tumor growth inhibition in melanoma xenograft model (FIG. 5C); format: in vivo, nude mice; details: for tumor growth: 400 mg/kg oral once daily, initial 30 days
Experimental: as §1
In FIG. 5A, a two-dimensional assessment of ST-162 and ST-168. […] In FIG. 5B, assessment of dead cells in 3D melanoma spheroids post-treatment with ST-162 and ST-168. A375 melanoma spheroids were treated for 72 h with 20 μM each of ST-162 or ST-168 before staining with Calcein AM and ethidium homodimer-1 for fluorescent microscopy (live/dead viability assay, Molecular Probes). Green fluorescence indicates live cells, and red fluorescence indicates dead cells. Images were obtained with an Olympus IX70 fluorescent microscope using the SPOT advance program. In FIG. 5C tumor growth inhibition by ST-162 and ST-168 in a melanoma xenograft model. Tumor implantation consisted of inoculation of 5×10^6 A375 cells suspended in 100 μL of media into the flank of nude mice. Treatment was initiated once tumors reached >100 mm^3. Mice were randomized into two treatment groups and treated once daily with either vehicle (200 μL of OraPlus) or 400 mg/kg each of ST-162 or ST-168 by oral gavage until sacrifice (42 days). Changes in tumor growth of A375 xenografts were assessed by conducting MRI imaging twice per week. Tumor volume changes between ST-162 and ST-168 treatment were determined to be statistically significant (p<0.05) using an unpaired Student's t test at the last time point. Experimental design: n=4-6 tumors/treatment group.

[1] = Tolerance in colorectal, glioma and melanoma mouse xenograft models; format: in vivo; details: 400 mg/kg orally, suspended in ORA-Plus, glioma, melanoma xenograft models
From the text: as §1

[2] = test system: TGFα-transgenic mouse model of idiopathic pulmonary fibrosis (IPF); assay: Dox-inducible TGFα-transgenic mouse model of idiopathic pulmonary fibrosis; format: in vivo, mice; details: 400 mg/kg PO, 3 week follow up CT scan
Experimental: Treatment of inflammatory-mediated fibrotic diseases were also evaluated using a doxycycline (Dox)-inducible transforming growth factor-α (TGFα)-transgenic mouse model of idiopathic pulmonary fibrosis (IPF) expressing lung-epithelial specific TGFα following Dox administration. […] Weekly lung micro-CT exams were used for assessment of fibrotic burden. Nintenadib (n=5) (100 mg/kg) was also evaluated for comparison. Lung tissue was examined microscopy in a subset of animals at the conclusion of the study.

[3] = ADME studies of ST-168 in mice; format: in vivo
From the text: as §1

[4] = Plasma and lymphatic tissue levels after single oral dose of ST-168 or PD901, LC-MS/MS (FIG. 3); format: in vivo; details: mouse
Experimental: LC-MS/MS quantification of drug concentrations in mouse tissues over time following a single oral dose is shown. FIG. 3 contains block diagrams for formulations in ORA-Plus liquid particulate suspension: FIG. 3A compound ST-168 levels at 4 hours in plasma and lymphatic tissue versus the MEK inhibitor PD0325901 (henceforth referred to as PD901). FIG. 3B ST-168 time dependence in plasma and lymphatic tissue, and formulated in Maisine, FIG. 3C ST-168 time dependence in plasma and lymphatic tissue following 100 mg/kg dose.
In FIG. 3, LC-MS/MS quantification of drug concentrations in mouse tissues over time are shown following a single oral suspension dose of ST-168 delivered in ORA-Plus®. ORA-Plus is an aqueous-based vehicle (ORA-Plus Product Data Sheet available at Perrigo Company's website) containing a synergistic blend of suspending agents having a high degree of colloidal activity. The suspending agents form a structured, gel-like matrix which suspends particles and allow for little settling. ORA-Plus is buffered to a slightly acidic pH to help reduce degradation of medicinal agents through oxidation. The ORA-Plus contains purified water, microcrystalline cellulose, carboxymethylcellulose sodium, xanthan gum, carrageenan, calcium sulfate, trisodium phosphate, citric acid and sodium phosphate as buffers and dimethicone antifoam emulsion, preserved with methylparaben and potassium sorbate. […] Any compound delivered in ORA-Plus is distributed to the plasma and lymphatic system based upon the physiochemical properties of the drug. Thus, the formulation itself only serves to provide for a suspension of drug particulates and dissolution of drug will be based upon water solubility.
This is an important distinction showing that Compound ST-168 has lymphatic absorptive properties because ORA-Plus is not a long chain fatty acid like Maisine. […] Data presented in FIGS. 3A through 3D reveal that the mEG linker technology for chemical coupling with drugs produces solubility properties consistent with formulation and bioavailability required for drug-like pharmaceutical characteristics and improved lymphatic absorption.

[5] = Mesenteric lymph duct cannulation rat model, lymphatic transport (FIG. 8); format: in vivo; details: 50 mg/kg intraduodenal, pretreatment with cycloheximide
From the text: Evaluation of compound mechanism for lymphatic uptake was also undertaken.

mTOR = mTOR (Homo sapiens, UniProt P42345); assay: In vitro inhibition of mTOR; format: biochemical; details: Table 10B, inhibitory activity, unit inferred
[6] = Table 14, read-out: IC50 (nM) PI3Kδ
[7] = Table 14, read-out: IC50 (nM) PI3Kγ
[8] = Table 14, read-out: IC50 (nM) PI3Kα
[9] = Table 14, read-out: IC50 (nM) PI3Kβ
[10] = Table 10B, inhibitory activity, unit inferred, read-out: PI3Kδ
[11] = Table 10B, inhibitory activity, unit inferred, read-out: PI3Kα
[12] = Table 10B, inhibitory activity, unit inferred, read-out: PI3Kγ
[13] = Table 10B, inhibitory activity, unit inferred, read-out: PI3Kβ

PI3Kβ, sequence (P42338 whole entry, species assumed): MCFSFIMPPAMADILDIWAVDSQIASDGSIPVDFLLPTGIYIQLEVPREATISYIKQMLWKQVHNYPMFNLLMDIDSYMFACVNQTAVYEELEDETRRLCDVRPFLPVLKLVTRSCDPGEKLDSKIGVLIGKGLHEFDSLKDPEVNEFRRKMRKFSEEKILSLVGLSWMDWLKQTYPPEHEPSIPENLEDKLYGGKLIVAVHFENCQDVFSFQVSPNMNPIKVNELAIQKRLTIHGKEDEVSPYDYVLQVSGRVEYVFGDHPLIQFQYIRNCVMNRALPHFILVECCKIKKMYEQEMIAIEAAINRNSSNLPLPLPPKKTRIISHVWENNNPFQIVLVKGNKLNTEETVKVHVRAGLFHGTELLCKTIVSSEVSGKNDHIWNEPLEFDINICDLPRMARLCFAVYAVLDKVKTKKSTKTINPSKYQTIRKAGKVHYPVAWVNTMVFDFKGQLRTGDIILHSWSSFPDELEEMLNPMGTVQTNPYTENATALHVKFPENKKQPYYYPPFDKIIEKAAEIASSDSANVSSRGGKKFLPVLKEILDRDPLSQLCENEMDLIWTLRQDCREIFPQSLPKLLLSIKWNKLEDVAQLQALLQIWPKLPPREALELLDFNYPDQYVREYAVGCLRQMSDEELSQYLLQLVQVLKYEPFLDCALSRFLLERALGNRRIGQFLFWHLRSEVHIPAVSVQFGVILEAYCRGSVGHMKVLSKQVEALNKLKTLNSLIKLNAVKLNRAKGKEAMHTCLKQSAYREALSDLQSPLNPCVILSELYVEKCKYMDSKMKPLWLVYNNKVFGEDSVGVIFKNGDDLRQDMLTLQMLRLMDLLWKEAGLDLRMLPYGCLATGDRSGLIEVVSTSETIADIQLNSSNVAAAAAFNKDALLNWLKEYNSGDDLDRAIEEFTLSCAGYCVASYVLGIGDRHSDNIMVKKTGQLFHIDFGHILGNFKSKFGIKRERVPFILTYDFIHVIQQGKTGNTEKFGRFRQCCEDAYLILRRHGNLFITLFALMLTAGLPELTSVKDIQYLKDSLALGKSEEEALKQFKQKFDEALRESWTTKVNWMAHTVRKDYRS
PI3Kβ, sequence (P27986 whole entry partner, species assumed): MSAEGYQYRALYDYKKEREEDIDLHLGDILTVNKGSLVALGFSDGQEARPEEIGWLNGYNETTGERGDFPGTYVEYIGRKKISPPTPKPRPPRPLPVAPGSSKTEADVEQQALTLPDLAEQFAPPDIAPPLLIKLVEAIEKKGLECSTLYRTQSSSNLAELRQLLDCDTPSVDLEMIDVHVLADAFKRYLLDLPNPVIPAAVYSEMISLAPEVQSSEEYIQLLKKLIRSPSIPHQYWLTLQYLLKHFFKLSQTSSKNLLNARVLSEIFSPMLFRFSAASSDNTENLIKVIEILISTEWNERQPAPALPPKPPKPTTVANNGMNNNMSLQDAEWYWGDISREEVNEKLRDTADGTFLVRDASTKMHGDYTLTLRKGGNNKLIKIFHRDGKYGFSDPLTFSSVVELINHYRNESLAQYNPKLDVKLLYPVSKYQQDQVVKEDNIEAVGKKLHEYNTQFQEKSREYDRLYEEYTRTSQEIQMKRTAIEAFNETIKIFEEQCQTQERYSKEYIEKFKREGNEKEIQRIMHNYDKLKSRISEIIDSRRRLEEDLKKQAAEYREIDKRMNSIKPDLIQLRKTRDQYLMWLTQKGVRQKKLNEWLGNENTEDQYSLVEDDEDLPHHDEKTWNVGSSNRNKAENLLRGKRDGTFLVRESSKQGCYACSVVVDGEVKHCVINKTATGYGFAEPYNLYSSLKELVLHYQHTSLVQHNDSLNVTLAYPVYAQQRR
PI3Kδ, sequence (O00329 whole entry, species assumed): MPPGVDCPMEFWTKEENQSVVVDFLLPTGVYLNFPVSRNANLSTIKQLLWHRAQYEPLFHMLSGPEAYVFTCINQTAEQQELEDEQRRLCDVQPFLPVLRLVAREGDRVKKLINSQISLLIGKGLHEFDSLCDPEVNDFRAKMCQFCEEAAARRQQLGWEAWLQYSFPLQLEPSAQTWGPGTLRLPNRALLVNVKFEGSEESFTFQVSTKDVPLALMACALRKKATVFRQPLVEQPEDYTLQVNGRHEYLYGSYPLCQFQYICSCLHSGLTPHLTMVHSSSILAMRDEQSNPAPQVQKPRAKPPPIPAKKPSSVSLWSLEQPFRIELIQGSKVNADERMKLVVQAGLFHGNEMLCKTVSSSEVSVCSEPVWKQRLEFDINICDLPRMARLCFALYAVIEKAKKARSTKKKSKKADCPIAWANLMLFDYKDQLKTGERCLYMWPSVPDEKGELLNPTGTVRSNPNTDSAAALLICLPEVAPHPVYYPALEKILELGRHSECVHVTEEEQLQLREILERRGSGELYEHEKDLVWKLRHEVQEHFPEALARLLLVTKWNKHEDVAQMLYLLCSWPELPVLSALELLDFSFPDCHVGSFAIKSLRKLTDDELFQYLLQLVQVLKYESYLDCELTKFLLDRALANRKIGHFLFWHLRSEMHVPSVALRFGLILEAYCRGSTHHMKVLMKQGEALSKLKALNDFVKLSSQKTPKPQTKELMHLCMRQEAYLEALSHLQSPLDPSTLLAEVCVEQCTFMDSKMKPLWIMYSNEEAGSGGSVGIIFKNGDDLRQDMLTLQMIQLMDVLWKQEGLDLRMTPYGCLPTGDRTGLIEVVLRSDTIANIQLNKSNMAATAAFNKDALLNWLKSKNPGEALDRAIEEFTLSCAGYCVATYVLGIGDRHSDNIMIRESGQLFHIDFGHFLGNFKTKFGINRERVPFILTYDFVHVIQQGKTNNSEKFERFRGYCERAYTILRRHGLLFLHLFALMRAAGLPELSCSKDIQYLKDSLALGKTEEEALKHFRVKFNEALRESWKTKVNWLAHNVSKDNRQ
PI3Kδ, sequence (P27986 whole entry partner, species assumed): as the sequence (P27986 whole entry partner, species assumed) above
PI3Kγ, sequence (P48736 whole entry, species assumed): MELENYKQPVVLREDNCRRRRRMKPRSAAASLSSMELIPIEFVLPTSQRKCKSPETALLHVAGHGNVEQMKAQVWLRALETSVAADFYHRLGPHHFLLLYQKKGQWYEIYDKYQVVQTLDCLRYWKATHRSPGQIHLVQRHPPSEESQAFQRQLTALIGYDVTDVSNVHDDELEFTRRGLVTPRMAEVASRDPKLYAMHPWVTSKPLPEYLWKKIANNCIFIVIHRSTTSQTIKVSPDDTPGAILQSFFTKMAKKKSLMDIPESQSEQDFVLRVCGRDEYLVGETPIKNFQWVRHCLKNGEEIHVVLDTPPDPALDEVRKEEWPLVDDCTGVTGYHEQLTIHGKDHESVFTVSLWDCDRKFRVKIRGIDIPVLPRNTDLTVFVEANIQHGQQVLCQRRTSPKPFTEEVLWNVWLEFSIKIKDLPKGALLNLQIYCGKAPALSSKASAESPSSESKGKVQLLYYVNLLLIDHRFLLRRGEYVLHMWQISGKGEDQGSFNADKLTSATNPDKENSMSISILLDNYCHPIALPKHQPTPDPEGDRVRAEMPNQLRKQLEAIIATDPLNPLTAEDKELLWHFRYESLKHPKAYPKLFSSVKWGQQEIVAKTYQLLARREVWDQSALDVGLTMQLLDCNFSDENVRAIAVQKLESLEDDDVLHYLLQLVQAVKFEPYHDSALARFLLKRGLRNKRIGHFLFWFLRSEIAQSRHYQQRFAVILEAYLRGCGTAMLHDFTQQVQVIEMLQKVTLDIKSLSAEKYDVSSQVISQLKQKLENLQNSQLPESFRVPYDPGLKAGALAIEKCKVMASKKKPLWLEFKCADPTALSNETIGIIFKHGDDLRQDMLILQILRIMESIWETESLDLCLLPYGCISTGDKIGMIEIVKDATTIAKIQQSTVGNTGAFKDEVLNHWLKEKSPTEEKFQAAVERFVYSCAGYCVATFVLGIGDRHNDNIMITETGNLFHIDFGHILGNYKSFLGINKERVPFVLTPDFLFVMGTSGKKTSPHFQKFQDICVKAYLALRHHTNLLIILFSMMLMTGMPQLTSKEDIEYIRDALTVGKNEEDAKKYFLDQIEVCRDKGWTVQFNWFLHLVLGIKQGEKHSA
PI3Kα, sequence (P42336 whole entry, species assumed): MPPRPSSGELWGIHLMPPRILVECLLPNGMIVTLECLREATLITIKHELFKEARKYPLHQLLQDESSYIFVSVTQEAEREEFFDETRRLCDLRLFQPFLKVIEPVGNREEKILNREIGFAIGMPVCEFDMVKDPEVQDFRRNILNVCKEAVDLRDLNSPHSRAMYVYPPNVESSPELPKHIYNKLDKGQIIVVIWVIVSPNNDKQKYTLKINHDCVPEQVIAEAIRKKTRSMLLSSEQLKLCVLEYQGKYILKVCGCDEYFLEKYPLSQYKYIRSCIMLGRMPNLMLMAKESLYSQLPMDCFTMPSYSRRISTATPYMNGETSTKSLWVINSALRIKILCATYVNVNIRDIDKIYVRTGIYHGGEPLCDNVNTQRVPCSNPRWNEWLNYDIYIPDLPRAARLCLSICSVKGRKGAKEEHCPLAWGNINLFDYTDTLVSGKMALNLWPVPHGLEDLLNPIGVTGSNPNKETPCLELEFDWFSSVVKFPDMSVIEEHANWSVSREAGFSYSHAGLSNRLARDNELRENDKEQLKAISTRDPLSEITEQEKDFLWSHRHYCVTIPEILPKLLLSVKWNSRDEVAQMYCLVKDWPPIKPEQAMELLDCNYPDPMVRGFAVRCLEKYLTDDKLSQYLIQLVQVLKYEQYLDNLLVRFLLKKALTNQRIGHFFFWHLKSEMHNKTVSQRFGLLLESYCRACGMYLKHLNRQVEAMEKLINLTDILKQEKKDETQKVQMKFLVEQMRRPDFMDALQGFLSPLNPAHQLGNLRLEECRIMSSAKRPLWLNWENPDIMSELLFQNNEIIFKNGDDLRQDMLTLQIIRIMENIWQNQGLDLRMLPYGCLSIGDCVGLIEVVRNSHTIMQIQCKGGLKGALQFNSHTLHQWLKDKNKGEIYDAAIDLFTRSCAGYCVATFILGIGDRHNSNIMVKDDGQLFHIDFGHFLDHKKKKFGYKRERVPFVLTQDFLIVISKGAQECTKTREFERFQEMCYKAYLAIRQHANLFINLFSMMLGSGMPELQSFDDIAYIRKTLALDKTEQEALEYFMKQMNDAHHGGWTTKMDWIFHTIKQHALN
PI3Kα, sequence (P27986 whole entry partner, species assumed): as the sequence (P27986 whole entry partner, species assumed) above

IC50 (PI3Kδ; [6]) | IC50 (PI3Kγ; [7]) | IC50 (PI3Kα; [8]) | IC50 (PI3Kβ; [9]) | IC50 (PI3Kα; [11]) | SMILES | other results
 |  |  |  | 191 ± 64 nM | O=C(NOCCOCCOCCOCCN1CCN(c2nc(N3CCOCC3)nc(-n3c(C(F)F)nc4ccccc43)n2)CC1)c1ccc(F)c(F)c1Nc1ccc(I)cc1F [ST-162] | IC50 (PI3Kδ; [10]): 942 ± 120 nM; down regulation of pERK1/2 and pAKT in cells (pERK1/2 and pAKT): down regulate; tumor growth (A375 xenografts): tumor stasis
 |  |  |  | 42.3 ± 4 nM | CN(C)C1CCN(C(=O)c2ccc(NC(=O)Nc3ccc(-c4nc(N5CCOCC5)nc(N5CCN(C(=O)CCOCCOCCOCCONC(=O)c6ccc(F)c(F)c6Nc6ccc(I)cc6F)CC5)n4)cc3)cc2)CC1 [ST-185] | IC50 (PI3Kδ; [10]): 55.3 ± 3.9 nM; IC50 (PI3Kγ; [12]): 325 ± 78 nM; IC50 (mTOR): 50.4 ± 4.2 nM; IC50 (PI3Kβ; [13]): 1620 ± 442 nM

The next lines start with the compound.

SMILES | IC50 (PI3Kδ; [6]) | IC50 (PI3Kγ; [7]) | IC50 (PI3Kα; [8]) | IC50 (PI3Kβ; [9]) | IC50 (PI3Kα; [11]) | other results
CN(C)CCN(CCO)c1nc(N2CCOCC2)nc(-n2c(C(F)F)nc3ccccc32)n1 [ST-5-44] | 46.7 ± 3.3 nM | 869 ± 11 nM | 148 ± 22 nM | 627 ± 174 nM |  | 
NOCCOCCOCCOCCN(CCO)c1nc(N2CCOCC2)nc(-n2c(C(F)F)nc3ccccc32)n1 [ST-5-46] | 8.6 ± 1.2 nM | 137 ± 21 nM | 10.9 ± 0.7 nM | 1080 ± 143 nM |  | 
O=C(NOCCOCCOCCOCCN(CCO)c1nc(N2CCOCC2)nc(-n2c(C(F)F)nc3ccccc32)n1)c1ccc(F)c(F)c1Nc1ccc(I)cc1F [ST-5-47] | 137 ± 7 nM | 2570 ± 364 nM | 107 ± 21 nM | 3880 ± 725 nM |  | IC50 (MEK1): 352 ± 2 nM
NOCCOCCOCCOCCNc1nc(N2CCOCC2)nc(-n2c(C(F)F)nc3ccccc32)n1 [ST-5-50] | 12.6 ± 1 nM | 502 ± 20 nM | 89.3 ± 9.5 nM | 1870 ± 245 nM |  | 
COCCN(CCO)c1nc(N2CCOCC2)nc(-n2c(C(F)F)nc3ccccc32)n1 [ST-6-01] | 8.9 ± 0.5 nM | 30.7 ± 0.9 nM | 5.1 ± 1.1 nM | 136 ± 6.4 nM |  | 
O=C(NOCCOCCOCCOCCNc1nc(N2CCOCC2)nc(-n2c(C(F)F)nc3ccccc32)n1)c1ccc(F)c(F)c1Nc1ccc(F)cc1F [ST-6-02] | 236 ± 29 nM | 2740 ± 485 nM | 130 ± 13 nM | 1540 ± 188 nM |  | IC50 (MEK1): 124 ± 11 nM
O=C(NOCCOCCOCCOCCC(=O)N1CCN(c2nc(N3CCOCC3)nc(-n3c(C(F)F)nc4ccccc43)n2)CC1)c1ccc(F)c(F)c1Nc1ccc(I)cc1F [ST-168] |  |  |  |  | 69.2 ± 2.2 nM | tolerance / observed toxicities [1]: no observed toxicities; reversal of lung fibroproliferative disease and pleural thickness (CT) [2]: strong activity for reversal; IC50 (PI3Kγ; [12]): 2290 ± 241 nM; down regulation of pERK1/2 and pAKT in cells (pERK1/2 and pAKT): down regulate; bioavailability following administration [3]: bioavailable; Kp at 4 h ([4]; lymphatic tissue / plasma, single oral dose in ORA-Plus suspension, 4 hours post-administration, read-out: lymphatic/plasma ratio): ~120; partitioning between lymphatic/plasma over time ([4]; single oral dose of 400 mg/kg in ORA-Plus): maintained over a 24 hour time period; lymphatic uptake (tissue concentration levels) ([4]; single oral doses of 100 mg/kg and 400 mg/kg in Maisine, 2, 4, and 24 hour): extraordinarily high lymphatic uptake; in vivo activity for suppression of MEK1/PI3K kinase activities in solid tumors, compared to ST-162 (A375 xenografts; 400 mg/kg oral gavage once daily, A375 xenografts): superior in vivo activity; tumor growth (A375 xenografts): tumor stasis; IC50 (PI3Kβ; [13]): 1480 ± 377 nM
O=C(NOCCOCCOCCOCCC(=O)N1CCN(c2cnc3ccc(-c4cnc(Cl)c(NS(=O)(=O)c5ccc(F)cc5)c4)cc3n2)CC1)c1ccc(F)c(F)c1Nc1ccc(I)cc1F [ST-182] |  |  |  |  |  | reversal of lung fibroproliferative disease and pleural thickness (CT) [2]: strong activity for reversal; transport into the lymphatics after cycloheximide pretreatment [5]: significantly reduced
